Source: US20180353460A1, “METHODS OF TREATING UROLOGICAL DISORDERS USING SARMs” (priority 2014, published 2018)
Values joined by “and” are separate entries in the source; they are usually repeats but may differ in a detail not shown here. Equal values may be shown once.

How the values were obtained:
[1] = Serum drug concentration by LC-MS/MS in ovariectomized mice; format: in vivo; details: female, mouse, oral, 28 days
Experimental: Six to eight week old female mice (n=5-7) purchased from JAX® Mice were ovariectomized (OVX) or sham operated. Twenty days after OVX, treatment was initiated as outlined in the table below. Compounds of Formulas IX and VIII were dissolved in DSMO/PEG 300 (15:85) and were administered by oral gavage. Body weight and MRI measurements, to evaluate total body lean mass, were recorded at the beginning and at the end of the treatment. The animals were treated for twenty-eight days and then sacrificed, pelvic floor muscles isolated, weighed and stored for RNA and protein extraction. The expression of genes involved in catabolism and anabolism of muscle was measured by mRNA analysis. The serum concentrations of the drugs were measured by LC-MS/MS. The statistical analysis was performed using JMP Pro® software utilizing one way analysis of variance.
After samples were thawed, a 100 μL aliquot of mouse serum from each sample was mixed with 200 μL acetonitrile containing 200 nM compound of Formula XIII as the internal standard. After each sample was thoroughly vortex for 15 seconds, the sample was centrifuged at 3000 rpm for 10 min. Approximately 200 μL supernatant was transferred for LC-MS/MS analysis
Stock solutions of compounds of Formulas IX and VIII were 100 μM in DMSO. A dilution of 1:50 with control mouse serum was made and 200 μL of 2 μM was added to the first micro centrifuge tube. […] Transferred 100 μL from tube 1 (2 μM) to tube 2, vortexed and continued the 2 fold dilution through tube 7. 200 μL of acetonitrile containing 200 nM compound of Formula XIII as the internal standard was added to each tube. After vortexing and centrifuging, 200 μL was transferred to LC-MS/MS analysis. The concentration of each standard curve ranged from 1 μM to 0.0078 μM.
The analysis of compounds of Formulas IX and VIII in serum was performed using LC-MS/MS system consisting of Agilent 1100 HPLC with an MDS/Sciex 4000 Q-Trap™ mass spectrometer. The separation was achieved using a C18 analytical column (Alltima™, 2.1×100 mm, 3 μm) protected by a C18 guard column (Phenomenex™ 4.6 mm ID cartridge with holder). Mobile phase was consisting of channel A (95% acetonitrile+5% water+0.1% formic acid) and channel C (95% water+5% acetonitrile+0.1% formic acid) and was delivered isocratically at a flow rate of 0.4 mL/min. The total runtime for compound of Formula IX was 4.5 min, and the volume injected was 10 μL. The total runtime for compound of Formula VIII was also 4.5 min, and the volume injected was 10.0 μL. Multiple reaction monitoring (MRM) scans were made with curtain gas at 30 for compound of Formula IX, 25 for compound of Formula VIII; collision gas at medium for compound of Formula IX, high for compound of Formula VIII; nebulizer gas and auxiliary gases at 60 and source temperature at 550° C. for both. Molecular ions were formed using an ion spray voltage (IS) of 4200 V (negative mode). Declustering potential (DP), entrance potential (EP), collision energy (CE), product ion mass, and cell exit potential (CXP) were optimized with the values of −20.0, −10.0, −30.0, and −15.0, respectively, for the mass pair 388.1/118.1 (compound of Formula IX). Declustering potential (DP), entrance potential (EP), collision energy (CE), product ion mass, and cell exit potential (CXP) were optimized with the values of −95.9, −9.94, −40.0, and −15.0, respectively, for the mass pair 354.0/118.1 (compound of Formula VIII).
Animals were sacrificed 24 h after the last dose to measure the steady state concentration.

[2] = system: levator ani muscle, urethra and endometrium; assay: Proof of concept clinical study: quantitative pelvic MRI; format: in vivo, human
Text: Secondary Objectives: • To describe the effect of 12 weeks of treatment of Compound IX on the number of voids/day as assessed by the 3 days voiding diary. […] See Tables 2 (individual subject data) and Tables 4-6 (mean pad weight data for sites 1, 2, and 3, respectively), and FIG. 17 for mean and median reductions in pad weights from baseline to week 12 (across all sites). • To describe the effect of 12 weeks of treatment of Compound IX on SUI as assessed by the Urethral Pressure Profile (UPP). The UPP assessment was removed from the protocol because it is invasive and not standard of care. […] See summary data for all subjects across the 3 sites reported in Table 7 and FIGS. 13A and 13B. • Described is the effect of 12 weeks of treatment of Compound IX on subject reported impression of stress urinary incontinence severity as assessed by the Patient Global Impression of Severity Scale (PGI-S). See summary data for all subjects across the 3 sites reported in FIG. 12A. • Described is the effect of 12 weeks of treatment of Compound IX on subject reported impression of improvement as assessed by the Patient Global Impression of Improvement Scale (PGI-I). See summary data for all subjects across the 3 sites reported in FIG. 12B. • Described is the effect of 12 weeks of treatment of Compound IX on subject reported urogenital distress as assessed by the Urinary Distress Inventory Questionnaire (UDI-6). See summary data for all subjects across of 3 sites reported in Table 7 and FIG. 12C. • Described is the effect of 12 weeks of treatment of Compound IX on subject reported impact of urinary incontinence on daily life as assessed by the Incontinence Impact Questionnaire (IIQ-7). See summary data for all subjects across the 3 sites reported in Table 7 and FIG. 12D. • Described is the effect of 12 weeks of treatment of Compound IX on subject reported sexual function as indicated on the completion of the Female Sexual Function Index Questionnaire (FSFI). See summary data for all subjects across the 3 sites reported in Table 7 and FIG. 15. • Described is the effect of 12 weeks of treatment of Compound IX on pelvic floor muscles as measured by MRI. See FIG. 11 wherein the pelvic MRI for one representative subject on trial is reported at baseline and at 12 weeks, FIG. 16 wherein the pelvic MRI's for three representative subjects on trial are reported at baseline and at 12 weeks, and Example 19 and Table 13 which provide individual measurements of levator ani thickness, inner and outer diameter of the urethra, and endometrial thickness, and mean changes in the same from baseline to week 12.
Quantitative MRI was used to visualize the pelvic floor of all post-menopausal subjects with SUI.
In a continuation of the same study from Example 3, quantitative MRI was used to visualize the pelvic floor of 17 post-menopausal subjects with SUI. MRI was used to visualize and measure the mean thickness of the levator ani muscle, inner and outer diameter of the urethra, and the endometrial thickness of patients on trial at baseline and at the MRI visits approximately 12 weeks after baseline (exact times between baseline and second MRI are given). All data analysis used a significance value of 0.05 with one-tailed paired t-test. The mean change in each measurement and the statistical significance calculation for each value are given below: […]

[3] = 17 subjects, baseline to about week 12
[4] = individual patients, about 12 weeks

Question: Which results are given for C[C@](O)(COc1ccc(C#N)cc1)C(=O)Nc1ccc(C#N)c(Cl)c1 [VIII, (S)—N-(3-Chloro-4-cyanophenyl)-3-(4-cyanophenoxy)-2-hydroxy-2-methylpropanamide]?
Answer: concentration at 24 h after the last dose ([1]; 0.5 mpk p.o.): 0.429 µM; concentration at 24 h after the last dose ([1]; 2.5 mpk p.o.): 2.44 µM; concentration at 24 h after the last dose ([1]; 5 mpk p.o.): 4.1 µM

Question: Which results are given for C[C@](O)(COc1ccc(C#N)cc1)C(=O)Nc1ccc(C#N)c(C(F)(F)F)c1 [Compound IX, (S)—N-(4-Cyano-3-(trifluoromethyl)phenyl)-3-(4-cyanophenoxy)-2-hydroxy-2-methylpropanamide]?
Answer: mean change in levator ani muscle thickness ([2]; 17 subjects, baseline 4.79 mm to week 12, p=0.006): 1.15 mm; mean change in urethra inner diameter [2, 3]: 0.07 cm; mean change in urethra outer diameter [2, 3]: 0.07 cm; Endometrial stripe, follow up MRI [2, 4]: 2 mm (9×) and 3 mm (2×) and 5 mm and 4 mm (2×); Mean levator ani (LA) thickness at the level of the proximal urethra, follow up MRI [2, 4]: 4 mm (3×) and 5 mm (3×) and 6 mm (4×) and 1 mm and 6.5 mm and 8 mm and 10.5 mm and 7 mm (2×) and 10 mm; Urethra inner diameter, follow up MRI [2, 4]: 1.4 cm (2×) and 1.1 cm (3×) and 1.2 cm (2×) and 1 cm (4×) and 0.9 cm (2×) and 1.3 cm (4×); Urethra outer diameter, follow up MRI [2, 4]: 1.7 cm (2×) and 1.6 cm (5×) and 1.8 cm (3×) and 1.4 cm (2×) and 1.2 cm and 2 cm and 1.9 cm and 1.3 cm (2×); mean increase in inner urethral muscle diameter ([2]; week 12, baseline 10.7 mm, p=0.002): 0.7 mm; mean increase in outer urethral muscle diameter ([2]; week 12, baseline 15.4 mm, p=0.0003): 0.7 mm; concentration at 24 h after the last dose ([1]; 0.5 mpk p.o.): 0.862 µM; concentration at 24 h after the last dose ([1]; 2.5 mpk p.o.): 3.85 µM; concentration at 24 h after the last dose ([1]; 5 mpk p.o.): 6.07 µM
